In ChEMBL document CHEMBL4699592, “Nature-Inspired (di)Azine-Bridged Bisindole Alkaloids with Potent Antibacterial In Vitro and In Vivo Efficacy against Methicillin-Resistant Staphylococcus aureus” (J Med Chem, 2020):
Activity calls are given as the source filed them. No cut-off for these calls is given here.

Columns and labels:
[1] = molecular target: Pyruvate kinase PKM (Oryctolagus cuniculus) (UniProt P11974); experiment: Inhibition of rabbit muscle pyruvate kinase up to 12.5 uM using phosphoenolpyruvate as substrate measured for 5 mins by LDH-coupled assay; conditions: dose microM <=12.5, time 5.0 min
Chain of Pyruvate kinase PKM (Oryctolagus cuniculus) (P11974 whole entry): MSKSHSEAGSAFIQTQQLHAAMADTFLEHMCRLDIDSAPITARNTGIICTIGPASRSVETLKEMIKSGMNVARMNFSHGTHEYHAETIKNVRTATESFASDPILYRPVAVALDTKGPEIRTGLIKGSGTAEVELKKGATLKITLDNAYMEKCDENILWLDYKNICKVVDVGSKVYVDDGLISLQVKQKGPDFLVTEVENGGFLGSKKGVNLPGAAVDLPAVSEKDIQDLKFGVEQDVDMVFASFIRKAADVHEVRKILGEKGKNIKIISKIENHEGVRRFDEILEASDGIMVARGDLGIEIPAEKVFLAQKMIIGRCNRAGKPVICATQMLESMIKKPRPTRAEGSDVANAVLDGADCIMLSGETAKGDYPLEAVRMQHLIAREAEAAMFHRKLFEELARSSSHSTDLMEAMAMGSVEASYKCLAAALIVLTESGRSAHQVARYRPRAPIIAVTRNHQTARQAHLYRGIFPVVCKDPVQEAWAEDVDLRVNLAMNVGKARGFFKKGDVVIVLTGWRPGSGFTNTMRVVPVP

[2] = system: Acinetobacter baumannii; experiment: Synergistic antibacterial activity against Acinetobacter baumannii ATCC BAA-1605 assessed as FICI after 24 hrs in presence of colistin by checkerboard assay; type: functional
[3] = system: Mycobacterium tuberculosis; experiment: Antibacterial activity against Mycobacterium tuberculosis H37Rv at 0.78 to 100 uM after 5 days by resazurin dye based fluorescence assay; type: functional, organism-based; conditions: dose microM 0.78-100, time 5.0 day
[4] = system: Staphylococcus aureus; experiment: Induction of cell lysis in Staphylococcus aureus ATCC 700699 assessed as decrease in turbidity at 8 fold MIC measured after 2 hrs by photometric method; type: functional, organism-based
[5] = system: HepG2; experiment: Cytotoxicity against human HepG2 cells assessed as reduction in cell viability at >12.5 uM measured after 48 hrs by resazurin dye based fluorescence assay; conditions: hepg2, 48 h
[6] = system: Pseudomonas aeruginosa; experiment: Synergistic antibacterial activity against Pseudomonas aeruginosa ATCC 27853 assessed as FIC after 24 hrs in presence of colistin by checkerboard assay relative to test compound MIC; type: functional
[7] = system: Staphylococcus aureus; experiment: Inhibition of Staphylococcus aureus ATCC 700699 N-terminal His6-tagged pyruvate kinase expressed in Escherichia coli NiCo21(DE3) at 12.5 uM using phosphoenolpyruvate as substrate measured for 5 mins by LDH-coupled assay
[8] = system: Escherichia coli; experiment: Synergistic antimicrobial activity against Escherichia coli ATCC BAA 2469 assessed as FIC after 24 hrs in presence of colistin by checkerboard assay relative to test compound MIC; type: functional
[9] = system: Cell membrane; experiment: Induction of cell membrane permeabilization in methicillin sensitive Staphylococcus aureus ATCC 29213 at 5 fold MIC measured after 30 mins by propidium iodide/DAPI staining based fluorescence microscopic analysis; type: subcellular
[10] = system: Pseudomonas aeruginosa; experiment: Synergistic antibacterial activity against Pseudomonas aeruginosa ATCC 27853 assessed as FICI after 24 hrs in presence of colistin by checkerboard assay; type: functional

In the case of `Clc1ccc2[nH]cc(-c3cccc(-c4c[nH]c5ccc(Cl)cc45)n3)c2c1`, the inhibition [1] is reported as “inactive”, the “fractional inhibitory concentration index (FICI)” value [2] is reported as “<=0.3125” and the Activity [3] is reported as “Active”. The Activity [4] was “inactive”, the Activity [5] was “Toxic” and the FIC [6] was “<=0.0625”. For the same compound, the inhibition [7] was “inactive”, the FIC [8] was “<=0.0313” and the Activity [9] was “Active”. For the same compound, the “fractional inhibitory concentration index (FICI)” value [10] was “<=0.5625”.
